Key:
[1] = Population pharmacokinetic analysis of certepetide plasma concentrations (first-in-human trial NCT03517176); format: in vivo; details: for WT on Vc, effect of weight on Vc / WT on Vp, effect of weight on Vp: power model exponent
Experimental: The clinical aspects of this study were conducted at 3 clinical sites in Australia. All subjects gave their informed consent. The study enrolled subjects with metastatic PDAC and was a rising dose design, with certepetide doses of 0.2, 0.8, 1.6, and 3.2 mg/kg body weight. Each subject received a certepetide monotherapy run‐in followed by 28‐day cycles of certepetide with standard‐of‐care chemotherapy (nab‐paclitaxel and gemcitabine), as previously described.[19] Each 28‐day cycle involved dosing with nab‐paclitaxel, gemcitabine, and certepetide on days 1, 8, and 15. In each dosing instance, nab‐paclitaxel was given first intravenously at a dose of 125 mg/m^2 over 30 minutes. This was immediately followed by the administration of certepetide as a slow intravenous push over 1 minute. Gemcitabine was given as an intravenous infusion at a dose of 1000 mg/m^2 over 30 minutes. Samples for PK analysis were collected before certepetide dosing and at 3, 15, and 30 minutes and 1, 3, and 6 hours after completion of the certepetide infusion. PK collections were performed during a monotherapy run‐in period and on day 1 of chemotherapy cycles 1 and 6. Modeling was performed with all available data.
Certepetide concentrations in human plasma were determined using a liquid chromatography‐tandem mass spectrometry method across a concentration range of 50.0‐2500 ng/mL, with 50.0 ng/mL as the lower limit of quantification. Briefly, a plasma sample was spiked with a deuterated internal standard and then precipitated by methanol. After centrifugation, the supernatant was transferred to a clean tube and evaporated under nitrogen. Following reconstitution with 5% methanol:water, the sample was injected into a Shimadzu Nexera UPLC that used a Kinetex EVO‐C18 column for separation using first mobile phase A (0.1% formic acid in deionized water) followed by mobile phase B (0.1% formic acid in methanol). The multiple reaction monitoring transition was monitored on an ABSciex QTRAP 5500 mass spectrometer. The transitions used for certepetide and deuterated certepetide (+6) were 494.9 → 70.1 and 497.7 → 75.0, respectively. For intraday runs, the average accuracy and precision were 10.2% and 9.6%, respectively, at a concentration of 150 ng/mL. The inter‐day accuracy and precision were 10.2% and 9.7%, respectively.
The PK analysis dataset was composed of actual dates and times of dose and concentration samples. Post‐dose PK concentration data below the limit of quantification were accounted for using the M1 method (ie, excluded from the analysis).[22] Subject covariates at baseline were derived from the source data at the baseline visit, the screening visit, or another visit before the start of certepetide administration.
NONMEM software (version 7.5.1, ICON Development Solutions)[23] was used to perform nonlinear mixed‐effects modeling. Data assembly, graphical analyses, and model simulations were performed using NONMEM (version 7.5.1) and R (version 4.3.1).
A 2‐compartment model with linear elimination was used as the starting point for model development. Interindividual variability was included in structural model parameters (eg, central volume of distribution [Vc], clearance [CL], peripheral volume of distribution [Vp], and distribution clearance [Q]). Interindividual variability, assumed to have log‐normal distribution, was calculated using Equation (1). (1) θP,i=θP,typical·e^ηP,i
The residual variance was initially modeled using an additive and proportional error model (Equation 4), which accounted for […], assay error, model misspecification, and any potential data issues (eg, incorrect dose or sample collection times). (4) Yij=IPREDij×1+ε1,ij+ε2,ij
Model development continued by adding covariates in a stepwise fashion and assessing the change in objective function value (OFV). […]

[2] = autoradiography; ref data on file; cited from earlier work
Experimental: (§1) Certepetide is administered as a slow intravenous push over 1 minute shortly after the administration of chemotherapy and/or immunotherapy. Certepetide is thought to be metabolized into its component amino acids, as expected for small peptides.

plasma proteins = details: ref data on file; cited from earlier work
Experimental: as §1

[3] = system: patients with unresectable metastatic PDAC; design: method as in PMID 35803294, PMID 36982773; details: cited from earlier work
[4] = final population PK model, reference 70 kg
[5] = interim population PK model with body weight and age on clearance, typical value

CC(=O)N[C@H]1CSSC[C@@H](C(N)=O)NC(=O)[C@H](CC(=O)O)NC(=O)[C@@H]2CCCN2C(=O)CNC(=O)[C@H](CCCCN)NC(=O)[C@H](CC(=O)O)NC(=O)CNC(=O)[C@H](CCCNC(=N)N)NC1=O [Certepetide]
Dose linearity of PK ([1]; concentration-time and dose-normalized curves at 0.2, 0.8, 1.6 and 3.2 mg/kg): linear PKs | Vc, central volume of distribution ([1]; final population PK model (2-compartment, linear elimination, NONMEM), 31 patients with metastatic PDAC, 0.2-3.2 mg/kg IV push over 1 min with nab-paclitaxel and gemcitabine, plasma LC-MS/MS, typical value, reference 70 kg): 5.87 L | Q, intercompartmental clearance ([1]; final population PK model, 31 patients with metastatic PDAC, IV, typical value): 24.9 L/h | CLR, renal clearance (dependent on CrCL) ([1]; final population PK model, 31 patients with metastatic PDAC, IV, typical value at reference CrCL 90 mL/min, purely model-derived): 4.32 L/h | Vp, peripheral volume of distribution ([1]; final population PK model, 31 patients with metastatic PDAC, IV, typical value, reference 70 kg): 10.3 L | CLNR, nonrenal clearance (independent of CrCL) ([1]; final population PK model, 31 patients with metastatic PDAC, IV, typical value, purely model-derived): 2.56 L/h | WT on Vc, effect of weight on Vc [1, 4]: 0.933 | WT on Vp, effect of weight on Vp [1, 4]: 0.879 | clearance ([1]; human, plasma, iv, interim population PK model with body weight and age on clearance, typical value, reference 70 kg, 60 years, read-out: CL, clearance (converted)): 118 mL/min | Vc, central volume of distribution ([1]; interim population PK model with body weight and age on clearance, 31 patients with metastatic PDAC, IV, typical value): 5.87 L | Q, intercompartmental clearance [1, 5]: 25.0 L/h | Vp, peripheral volume of distribution [1, 5]: 10.3 L | WT on Vc, effect of weight on Vc ([1]; interim population PK model): 0.940 | WT on Vp, effect of weight on Vp ([1]; interim population PK model): 0.885 | Route of elimination [2]: primarily undergoes renal elimination | Plasma protein binding (plasma proteins): does not bind to plasma proteins | Patients with ≥50% reduction in CA19-9 ([3]; cycle 5, day 1, certepetide with nab-paclitaxel and gemcitabine): 20 out of 22 | Dose-limiting toxicities associated with the study drug ([3]; doses 0.2-3.2 mg/kg): no dose‐limiting toxicities

Source: publication PMC11905876, “Population Pharmacokinetic Modeling of Certepetide in Human Subjects With Metastatic Pancreatic Ductal Adenocarcinoma” (Clinical Pharmacology in Drug Development, 2025)
